From patent US10570184B2, “GLP-1/glucagon receptor co-agonists for medical use” (Novo Nordisk A/S, priority 2014, dated 2020)
Starred links: 1 amine or outer side, 2 acyl side, 3 side chain; linkers in the order of their positions; H or OH if unused. Non-standard residues stand in square brackets, D forms with d. Residues, ends and D or L forms follow the SMILES beside them. Groups on a side chain read outwards from the residue. *: point of attachment. C18 diacid = O=C(O)CCCCCCCCCCCCCCCCC(=O)*; γGlu = O=C(O)[C@H](CCC(=O)[*:2])N[*:1]; Ac4c = NC1(C(=O)O)CCC1; AEEA = NCCOCCOCC(=O)O; Aib = CC(C)(N)C(=O)O

Each molecule was assayed against T1, human GLP-1 receptor (Homo sapiens, UniProt P43220) (assay: Assay (II)(a) GLP-1 receptor binding, 125I-GLP-1 displacement SPA on BHK membranes). Conditions: without presence of serum albumin; read-out: GLP-1R IC50 (nM) [Assay (II)(a)].
T1 construct: expressed in transfected cells; host or cells: membranes of BHK cells (parent BHKTS13), clone FCW467-12A
T1 sequence (P43220 24-463): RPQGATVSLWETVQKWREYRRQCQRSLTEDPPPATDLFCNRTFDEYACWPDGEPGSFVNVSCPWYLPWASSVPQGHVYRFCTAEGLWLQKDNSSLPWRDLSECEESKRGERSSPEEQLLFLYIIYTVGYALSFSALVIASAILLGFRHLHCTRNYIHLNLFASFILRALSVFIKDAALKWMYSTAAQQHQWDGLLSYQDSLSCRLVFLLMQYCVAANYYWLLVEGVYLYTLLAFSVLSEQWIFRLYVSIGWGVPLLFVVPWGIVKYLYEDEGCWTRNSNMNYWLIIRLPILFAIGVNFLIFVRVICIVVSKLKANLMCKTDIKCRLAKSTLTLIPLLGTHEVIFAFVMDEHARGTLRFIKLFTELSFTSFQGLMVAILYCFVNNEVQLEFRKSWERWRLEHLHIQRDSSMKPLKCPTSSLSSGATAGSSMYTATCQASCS
Method in brief: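 Membranes from BHK cells (clone FCW467-12A) stably expressing human GLP-1R were incubated with serially diluted compounds (8×10EE-13 to 8×10EE-7 M before addition) and [125I]-GLP-1-(7-36)NH2 with WGA SPA beads, 2 h at 30° C, pH 7.4. IC50 taken from displacement by non-linear regression. Run at ≤0.001% or 2.0% final serum albumin.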

Row | SMILES | IC50
1 | CC[C@H](C)[C@H](NC(=O)[C@H](CC(C)C)NC(=O)[C@H](Cc1c[nH]c2ccccc12)NC(=O)[C@H](C)NC(=O)[C@@H](NC(=O)[C@H](Cc1ccccc1)NC(=O)[C@H](CC(=O)O)NC(=O)[C@H](CCCNC(=N)N)NC(=O)[C@H](C)NC(=O)[C@H](CCCNC(=N)N)NC(=O)[C@H](CCCNC(=N)N)NC(=O)[C@H](CC(C)C)NC(=O)[C@H](CC(=O)O)NC(=O)[C@H](CC(C)C)NC(=O)[C@H](Cc1ccc(O)cc1)NC(=O)[C@H](CCCCN)NC(=O)[C@H](CO)NC(=O)[C@H](CC(C)C)NC(=O)[C@H](CC(=O)O)NC(=O)[C@H](CO)NC(=O)[C@@H](NC(=O)[C@H](Cc1ccccc1)NC(=O)[C@@H](NC(=O)CNC(=O)[C@H](CCC(N)=O)NC(=O)C(C)(C)NC(=O)[C@@H](N)Cc1c[nH]cn1)[C@@H](C)O)[C@@H](C)O)C(C)C)C(=O)N[C@@H](CC(N)=O)C(=O)N[C@@H](CCCCNC(=O)CC[C@H](NC(=O)CC[C@H](NC(=O)COCCOCCNC(=O)COCCOCCNC(=O)CC[C@H](NC(=O)CCCCCCCCCCCCCCCCC(=O)O)C(=O)O)C(=O)O)C(=O)O)C(N)=O [Chem. 24, N^ε29-[(4S)-4-carboxy-4-[[(4S)-4-carboxy-4-[[2-[2-[2-[[2-[2-[2-[[(4S)-4-carboxy-4-(17-carboxyheptadecanoylamino)butanoyl]amino]ethoxy]ethoxy]acetyl]amino]ethoxy]ethoxy]acetyl]amino]butanoyl]amino]butanoyl]-[Aib2,Leu10,Leu16,Arg20,Ala24,Ile27,Lys29]-Glucagon amide] (H-H[Aib]QGTFTSDLSKYLDLRRARDFVAWLINK([γGlu-γGlu-AEEA-AEEA-γGlu-C18 diacid])-NH2; N-terminus assumed) | 0.4 nM
2 | CC[C@H](C)[C@H](NC(=O)[C@H](CC(C)C)NC(=O)[C@H](Cc1c[nH]c2ccccc12)NC(=O)[C@H](CCC(N)=O)NC(=O)[C@@H](NC(=O)[C@H](Cc1ccccc1)NC(=O)[C@H](CCC(=O)O)NC(=O)[C@H](CCCNC(=N)N)NC(=O)[C@H](C)NC(=O)[C@H](CCCNC(=N)N)NC(=O)[C@H](CCCNC(=N)N)NC(=O)[C@H](CO)NC(=O)[C@H](CCC(=O)O)NC(=O)[C@H](CC(C)C)NC(=O)[C@H](Cc1ccc(O)cc1)NC(=O)[C@H](CCCCN)NC(=O)[C@H](CO)NC(=O)[C@H](CC(C)C)NC(=O)[C@H](CC(=O)O)NC(=O)[C@H](CO)NC(=O)[C@@H](NC(=O)[C@H](Cc1ccccc1)NC(=O)[C@@H](NC(=O)CNC(=O)[C@H](CCC(N)=O)NC(=O)C(C)(C)NC(=O)[C@@H](N)Cc1c[nH]cn1)[C@@H](C)O)[C@@H](C)O)C(C)C)C(=O)N[C@@H](CCCCNC(=O)CC[C@H](NC(=O)CC[C@H](NC(=O)COCCOCCNC(=O)COCCOCCNC(=O)CC[C@H](NC(=O)CC[C@H](NC(=O)CCCCCCCCCCCCCCCCC(=O)O)C(=O)O)C(=O)O)C(=O)O)C(=O)O)C(=O)N[C@H](C(N)=O)[C@@H](C)O [Chem. 25, N^ε28-[(4S)-4-carboxy-4-[[(4S)-4-carboxy-4-[[2-[2-[2-[[2-[2-[2-[[(4S)-4-carboxy-4-[[(4S)-4-carboxy-4-(17-carboxyheptadecanoylamino)butanoyl]amino]butanoyl]amino]ethoxy]ethoxy]acetyl]amino]ethoxy]ethoxy]acetyl]amino]butanoyl]amino]butanoyl]-[Aib2,Leu10,Glu15,Arg20,Glu21,Ile27,Lys28]-Glucagon amide] (H-H[Aib]QGTFTSDLSKYLESRRAREFVQWLIK([γGlu-γGlu-AEEA-AEEA-γGlu-γGlu-C18 diacid])T-NH2; N-terminus assumed) | 0.1 nM
3 | CC[C@H](C)[C@H](NC(=O)[C@H](CC(=O)O)NC(=O)[C@H](CO)NC(=O)[C@@H](NC(=O)[C@H](Cc1ccccc1)NC(=O)[C@@H](NC(=O)CNC(=O)[C@H](CCC(N)=O)NC(=O)C1(NC(=O)[C@@H](N)Cc2c[nH]cn2)CCC1)[C@@H](C)O)[C@@H](C)O)C(=O)N[C@@H](CO)C(=O)N[C@@H](CCCCN)C(=O)N[C@@H](Cc1ccc(O)cc1)C(=O)N[C@@H](CC(C)C)C(=O)N[C@@H](CCC(=O)O)C(=O)N[C@@H](CO)C(=O)N[C@@H](CCCNC(=N)N)C(=O)N[C@@H](CCCNC(=N)N)C(=O)N[C@@H](C)C(=O)N[C@@H](CCCNC(=N)N)C(=O)N[C@@H](CCC(=O)O)C(=O)N[C@@H](Cc1ccccc1)C(=O)N[C@H](C(=O)N[C@@H](CCC(N)=O)C(=O)N[C@@H](Cc1c[nH]c2ccccc12)C(=O)N[C@@H](CC(C)C)C(=O)N[C@H](C(=O)N[C@@H](CCCCNC(=O)CC[C@H](NC(=O)CC[C@H](NC(=O)COCCOCCNC(=O)COCCOCCNC(=O)CC[C@H](NC(=O)CC[C@H](NC(=O)CCCCCCCCCCCCCCCCC(=O)O)C(=O)O)C(=O)O)C(=O)O)C(=O)O)C(=O)N[C@H](C(N)=O)[C@@H](C)O)[C@@H](C)CC)C(C)C [Chem. 26, N^ε28-[(4S)-4-carboxy-4-[[(4S)-4-carboxy-4-[[2-[2-[2-[[2-[2-[2-[[(4S)-4-carboxy-4-[[(4S)-4-carboxy-4-(17-carboxyheptadecanoylamino)butanoyl]amino]butanoyl]amino]ethoxy]ethoxy]acetyl]amino]ethoxy]ethoxy]acetyl]amino]butanoyl]amino]butanoyl]-[Acb2,Ile10,Glu15,Arg20,Glu21,Ile27,Lys28]-Glucagon amide] (H-H[Ac4c]QGTFTSDISKYLESRRAREFVQWLIK([γGlu-γGlu-AEEA-AEEA-γGlu-γGlu-C18 diacid])T-NH2; N-terminus assumed) | 0.4 nM
4 | CC[C@H](C)[C@H](NC(=O)[C@H](CC(C)C)NC(=O)[C@H](Cc1c[nH]c2ccccc12)NC(=O)[C@H](CCC(N)=O)NC(=O)[C@@H](NC(=O)[C@H](Cc1ccccc1)NC(=O)[C@H](CC(=O)O)NC(=O)[C@H](CCCNC(=N)N)NC(=O)[C@H](C)NC(=O)[C@H](CCCNC(=N)N)NC(=O)[C@H](CCCNC(=N)N)NC(=O)[C@H](C)NC(=O)[C@H](CC(=O)O)NC(=O)[C@H](CC(C)C)NC(=O)[C@H](Cc1ccc(O)cc1)NC(=O)[C@H](CCCCN)NC(=O)[C@H](CO)NC(=O)[C@H](CC(C)C)NC(=O)[C@H](CC(=O)O)NC(=O)[C@H](CO)NC(=O)[C@@H](NC(=O)[C@H](Cc1ccccc1)NC(=O)[C@@H](NC(=O)CNC(=O)[C@H](CCC(N)=O)NC(=O)C(C)(C)NC(=O)[C@@H](N)Cc1c[nH]cn1)[C@@H](C)O)[C@@H](C)O)C(C)C)C(=O)N[C@@H](CO)C(=O)N[C@@H](CCCCNC(=O)CC[C@H](NC(=O)CC[C@H](NC(=O)COCCOCCNC(=O)COCCOCCNC(=O)CC[C@H](NC(=O)CCCCCCCCCCCCCCCCC(=O)O)C(=O)O)C(=O)O)C(=O)O)C(N)=O [Chem. 27, N^ε29-[(4S)-4-carboxy-4-[[(4S)-4-carboxy-4-[[2-[2-[2-[[2-[2-[2-[[(4S)-4-carboxy-4-(17-carboxyheptadecanoylamino)butanoyl]amino]ethoxy]ethoxy]acetyl]amino]ethoxy]ethoxy]acetyl]amino]butanoyl]amino]butanoyl]-[Aib2,Leu10,Ala16,Arg20,Ile27,Ser28,Lys29]-Glucagon amide] (H-H[Aib]QGTFTSDLSKYLDARRARDFVQWLISK([γGlu-γGlu-AEEA-AEEA-γGlu-C18 diacid])-NH2; N-terminus assumed) | 0.2 nM
